The values that follow come from ChEMBL document CHEMBL1687806, “Susceptibility of treatment-naive hepatitis C virus (HCV) clinical isolates to HCV protease inhibitors” (Antimicrob Agents Chemother, 2010).

In assay [1] the test system is Hepatitis C virus. Description: Ratio of EC50 for wild type HCV1b harboring NS3 protease gene to EC50 for HCV1b B10 harboring NS3 protease S7A, R26K, V48I, T54S mutant. The format is functional, Hepacivirus hominis, genotype 1b.
Assay [2] concerns Hepatitis C virus. Description: Ratio of EC50 for wild type HCV1b harboring NS3 protease gene to EC50 for HCV1b harboring NS3 protease T54S mutant. The assay is classed as functional, Hepacivirus hominis, genotype 1b.
For assay [3], the system named is Hepatitis C virus. In words: Ratio of EC50 for wild type HCV1b harboring NS3 protease gene to EC50 for HCV1b harboring NS3 protease Q80K mutant. The format is functional, Hepacivirus hominis, genotype 1b.
Assay [4] relates to Hepatitis C virus. Description: Ratio of EC50 for wild type HCV1b harboring NS3 protease gene to EC50 for HCV1b A25 harboring NS3 protease T40A, T54S, V55I, I64L, P67S, Q80K, Q88H, S90A, L153I mutant. The format is functional, Hepacivirus hominis, genotype 1b.
For assay [5], the system named is Hepatitis C virus. Description: Antiviral activity against HCV1b Con1 harboring NS3 protease gene infected in human Huh7/Lunet cells assessed as inhibition of viral replication after 3 days by luciferase based transient-transfection assay. The format is functional, organism-based, Hepacivirus hominis. As to conditions: Con1, Huh-7, 72 h.
Assay [6] relates to Hepatitis C virus. In words: Ratio of EC50 for wild type HCV1b harboring NS3 protease gene to EC50 for HCV1b harboring NS3 protease Q80K, T54S mutant. The assay is classed as functional, Hepacivirus hominis, genotype 1b.
For assay [7], the system named is Hepatitis C virus. In words: Ratio of EC50 for wild type HCV1b harboring NS3 protease gene to EC50 for HCV1b B13 harboring NS3 protease R26K, V46I, Q80L mutant. The format is functional, Hepacivirus hominis, genotype 1b.
In assay [8] the test system is Hepatitis C virus. Description: Antiviral activity against HCV1b harboring Q80K polymorphism in NS3 protease gene infected in human Huh7/Lunet cells assessed as inhibition of viral replication after 3 days by luciferase based transient-transfection assay. The following applies: genotype 1b, Huh-7, 72 h. The format is functional, organism-based, Hepacivirus hominis.

Assay [9] deals with Hepatitis C virus. In words: Ratio of EC50 for HCV1b harboring Q80K polymorphism in NS3 protease gene to EC50 for HCV1b harboring Q80Q polymorphism in NS3 protease gene. The assay is classed as functional, Hepacivirus hominis, genotype 1b.
In assay [10] the test system is Hepatitis C virus. Description: Antiviral activity against HCV1b harboring Q80Q polymorphism in NS3 protease gene infected in human Huh7/Lunet cells assessed as inhibition of viral replication after 3 days by luciferase based transient-transfection assay. The assay is classed as functional, organism-based, Hepacivirus hominis. The following applies: genotype 1b, Huh-7, 72 h.

Each structure is given as a SMILES string. pEC50: −log10 of the molar value.

One may read the pEC50 as −log10 of the EC50, conventionally taken in molar units. As for `CCC[C@H](NC(=O)[C@@H]1[C@H]2CCC[C@H]2CN1C(=O)[C@@H](NC(=O)[C@@H](NC(=O)c1cnccn1)C1CCCCC1)C(C)(C)C)C(=O)C(=O)NC1CC1` [TELAPREVIR], the “Ratio EC50” value in [1] is listed as 6.2; in assay [2], 5.6; in assay [3], 1; in assay [4], 1; in assay [6], 2.3; in assay [7], 1. The “Ratio EC50” value in assay [9] turned out to be 0.5. The negative-log EC50 (pEC50) was 6.42 in [5], 7.14 in [8] and 6.75 in assay [10].

Regarding `COc1ccc2c(O[C@@H]3C[C@H]4C(=O)N[C@]5(C(=O)NS(=O)(=O)C6CC6)C[C@H]5/C=C\CCCCN(C)C(=O)[C@@H]4C3)cc(-c3nc(C(C)C)cs3)nc2c1C` [SIMEPREVIR], the “Ratio EC50” value in assay [1] was determined as 0.8; in [2] it was 0.7; in [3], 10.9; in assay [4] it was 10.8; in [6] it was 7.3; in assay [7], 1. In addition, the “Ratio EC50” value in assay [9] is recorded as 7.5. Besides, the pEC50 in [5] is 8.48; in [8], 7.70; in assay [10], 8.57.

With `CCCCCOc1ccc(NC(=S)NC(=O)c2cccnc2)cc1C(F)(F)F`, in assay [5], the negative logarithm of the EC50 (pEC50) was 7.55.

For the compound `CC[C@@H]1C[C@]1(NC(=O)[C@@H]1C[C@@H]2CN1C(=O)[C@H](C(C)(C)C)NC(=O)OCC(C)(C)CCCCc1cccc3c1CN(C3)C(=O)O2)C(=O)NS(=O)(=O)C1CC1` [VANIPREVIR], the “Ratio EC50” value in [1] is on record as 1.2; in assay [2], 0.5; in assay [3] it was 6.6; in [4], 2.2; in [6], 3.7; in [7], 1.5. The “Ratio EC50” value in [9] is 1.5. The results for the pEC50 in [5], in [8] and in assay [10] were 9.15, 9.39 and 9.57, respectively.

Take `CC(C)(C)NC(=O)N[C@H](C(=O)N1C[C@H]2[C@@H]([C@H]1C(=O)NC(CC1CCC1)C(=O)C(N)=O)C2(C)C)C(C)(C)C` (stereo partly specified) [BOCEPREVIR]: the “Ratio EC50” value is 9 in assay [1]; 4.7 in assay [2]; 0.9 in [3]; 1.7 in assay [4]; 1.7 in assay [6]; 1 in [7]. The “Ratio EC50” value in assay [9] is 0.4. The pEC50 is 6.56 in [5], 7.04 in assay [8] and 6.70 in assay [10].

Consider `CC(C)(C)OC(=O)N[C@H]1CCCCC/C=C\[C@@H]2C[C@@]2(C(=O)NS(=O)(=O)C2CC2)NC(=O)[C@@H]2C[C@@H](OC(=O)N3Cc4cccc(F)c4C3)CN2C1=O` [DANOPREVIR], for which the “Ratio EC50” value in [1] is listed as 1.2; in assay [2], 1; in assay [3] it was 6.3; in assay [4], 2.7; in assay [6], 5.3; in [7], 1.7. In assay [9], the “Ratio EC50” value amounted to 1.7. Moreover, the pEC50 was 9.22 in assay [5], 9.21 in assay [8] and 9.60 in assay [10].
